Measured values taken from patent publication US10259774B1, “Antimicrobials for preservation of home and personal care products” (GALAXY SURFACTANTS LTD., priority 2018, dated 2019).

How the values were obtained:
[1] = comparison surfactants, conditions not given; cited from earlier work
[2] = system: Escherichia coli ATCC 8739, Pseudomonas aeruginosa ATCC 15442, Staphylococcus aureus ATCC 6538, Propionibacterium acnes MTCC 1951, Candida albicans ATCC 10231 …; assay: Preservative challenge test according to PCPC protocol; assay type: cell-based, bacteria, yeast and mold
Source text: The preservative efficacy of the compounds of Formula I has been tested in surfactant formulations typically containing anionic surfactant with pH ranging for 4 to 8.0. The personal care and home care formulations (body wash, shampoo, skin-cream and dish wash) are preserved with 1.0 to 2.0% of compounds of Formula I. The details of formulations are given in Examples 4, 5, 6, 7, 8, 9, and 10. The above formulations pass the challenge test performed according to PCPC protocol using Escherichia coli ATCC 8739, Pseudomonas aeruginosa ATCC 15442 (Gram −ve bacteria), Staphylococcus aureus ATCC 6538, Propionibacterium acnes MTCC 1951, (Gram +ve) Candida albicans ATCC 10231, Malassezia furfur MTCC 1374 (yeast) and Aspergillus niger ATCC 16404 (mold) The formulations pass the challenge test criteria for both bacteria and fungi.
The above formulations (Example 4, 5, 6, 7, 8, 9 & 10) pass the challenge test performed according to PCPC protocol using Escherichia coli ATCC 8739, Pseudomonas aeruginosa ATCC 15442 (Gram −ve bacteria), Staphylococcus aureus ATCC 6538, Propionibacterium acnes MTCC 1951, (Gram +ve) Candida albicans ATCC 10231, Malassezia furfur MTCC 1374 (yeast) and Aspergillus niger ATCC 16404 (mold).

In the case of cocoamidopropyl betaine, the CMC [1] is given as 0.05 mmol/L.
In the case of CCCCCCCCCCCC[N+](CCC(=O)OC)(CCC(=O)OC)Cc1ccccc1.[Cl-] [N-Lauryl, N,N-Dimethyldipropionate Benzyl Ammonium Chloride], the “MIC (%)” value (S aureus) is reported as 0.5%, the “MIC (%)” value (E coli) is reported as 0.3% and the “MIC (%)” value (Pseudomonas sp) is reported as 0.5%. The “MIC (%)” value (P acne) was 0.4%, the “MIC (%)” value (C. albicans) was 0.4% and the “MIC (%)” value (M furfur) was 0.5%. The “MIC (%)” value (Aspergillus niger) was 0.2%.
In the case of “N-Alkyl, N,N-dimethyl, N-benzyl ammonium chloride [Benzalkonium chloride]”, the challenge test ([2]; 10% SLES preserved with 1% of the substance, PCPC protocol) is reported as “failed to pass” and the “antimicrobial activity in the presence of anionic surfactant” value ([2]; used at 10000 ppm) is reported as “does not exhibit any antimicrobial activity”.
For CCCCCCCCCCCCOS(=O)(=O)[O-].[Na+] [sodium lauryl sulphate], the CMC [1] is given as 8.0 mmol/L.
